In PubChem BioAssay AID1963856 (Molecular Pharmacology Branch, DTP, NCI, 2024):

Test system: LG0567-F671-PDC KRAS tumor spheroid viability
Experiment: Anticancer human tumor LG0567-F671-PDC patient-derived lung adenocarcinoma cell line growth inhibition [KRAS2]
Settings: spheroids with HUVEC and MSC; for viability, T/C: stronger effect = lower value
Summary of the method: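 KRAS-mutant tumor cells were grown as spheroids with HUVEC endothelial cells and human MSCs as stroma. Targeted agents were tested alone and with KRAS pathway inhibitors. Doses started at or near clinical Cmax, or 10 microM, descending half-log.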

[1] = curve of first compound, second compound 0.1 µM
[2] = curve of first compound, second compound 0.316 µM
[3] = curve of first compound, second compound 1 µM
[4] = curve of first compound, second compound 3.16 µM
[5] = curve of first compound, second compound 10 µM
[6] = second compound 0.1 µM, first compound 0.000316 µM
[7] = second compound 0.1 µM, first compound 0.001 µM
[8] = second compound 0.1 µM, first compound 0.00316 µM
[9] = second compound 0.1 µM, first compound 0.01 µM
[10] = second compound 0.1 µM, first compound 0.0316 µM
[11] = second compound 0.1 µM, first compound 0.1 µM
[12] = second compound 0.316 µM, first compound 0.000316 µM
[13] = second compound 0.316 µM, first compound 0.001 µM
[14] = second compound 0.316 µM, first compound 0.00316 µM
[15] = second compound 0.316 µM, first compound 0.01 µM
[16] = second compound 0.316 µM, first compound 0.0316 µM
[17] = second compound 0.316 µM, first compound 0.1 µM
[18] = second compound 1 µM, first compound 0.000316 µM
[19] = second compound 1 µM, first compound 0.001 µM
[20] = second compound 1 µM, first compound 0.00316 µM
[21] = second compound 1 µM, first compound 0.01 µM
[22] = second compound 1 µM, first compound 0.0316 µM
[23] = second compound 1 µM, first compound 0.1 µM
[24] = second compound 3.16 µM, first compound 0.000316 µM
[25] = second compound 3.16 µM, first compound 0.001 µM
[26] = second compound 3.16 µM, first compound 0.00316 µM
[27] = second compound 3.16 µM, first compound 0.01 µM
[28] = second compound 3.16 µM, first compound 0.0316 µM
[29] = second compound 3.16 µM, first compound 0.1 µM
[30] = second compound 10 µM, first compound 0.000316 µM
[31] = second compound 10 µM, first compound 0.001 µM
[32] = second compound 10 µM, first compound 0.00316 µM
[33] = second compound 10 µM, first compound 0.01 µM
[34] = second compound 10 µM, first compound 0.0316 µM
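Further: drug exposure lasted seven days after spheroids formed for three days.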
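Wherever viability, T/C is given: 100% = DMSO vehicle control viability.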

## CN(C)C/C=C/C(=O)Nc1cc2c(Nc3ccc(F)c(Cl)c3)ncnc2cc1O[C@H]1CCOC1 + COc1cc2nc(C)nc(NC(C)c3cc(N)cc(C(F)(F)F)c3)c2cc1OC1CCOC1
[1]
  IC50: 30 nM
[2]
  IC50: 4.27 nM
[3]
  IC50: 11.2 nM
[4]
  IC50: < 0.316 nM
[5]
  IC50: < 0.316 nM
[6]
  viability, T/C: 88.5%
[7]
  viability, T/C: 68.1%
[8]
  viability, T/C: 56.5%
[9]
  viability, T/C: 51.2%
[10]
  viability, T/C: 51.6%
[11]
  viability, T/C: 48.2%
[12]
  viability, T/C: 69.5%
[13]
  viability, T/C: 60.9%
[14]
  viability, T/C: 54.4%
[15]
  viability, T/C: 40.8%
[16]
  viability, T/C: 45.1%
[17]
  viability, T/C: 46.2%
[18]
  viability, T/C: 85.9%
[19]
  viability, T/C: 66.4%
[20]
  viability, T/C: 57.5%
[21]
  viability, T/C: 53.9%
[22]
  viability, T/C: 39.8%
[23]
  viability, T/C: 49.3%
[24]
  viability, T/C: 45.9%
[25]
  viability, T/C: 43.8%
[26]
  viability, T/C: 36.4%
[27]
  viability, T/C: 32.1%
[28]
  viability, T/C: 29.8%
[29]
  viability, T/C: 32.1%
[30]
  viability, T/C: 39.6%
[31]
  viability, T/C: 35.5%
[32]
  viability, T/C: 27.8%
[33]
  viability, T/C: 24.4%
[34]
  viability, T/C: 17.8%
Second compound 10 µM, first compound 0.1 µM
  viability, T/C: 22.4%

## CC(=O)Nc1cccc(-n2c(=O)n(C3CC3)c(=O)c3c(Nc4ccc(I)cc4F)n(C)c(=O)c(C)c32)c1 + C=CC(=O)N1CCN(c2nc(=O)n(-c3c(C)ccnc3C(C)C)c3nc(-c4c(O)cccc4F)c(F)cc23)C(C)C1
[1]
  IC50: < 0.1 nM
[2]
  IC50: < 0.1 nM
[3]
  IC50: < 0.1 nM
[4]
  IC50: < 0.1 nM
[5]
  IC50: < 0.1 nM
Second compound 0.1 µM, first compound 0.0001 µM
  viability, T/C: 26.4%
[6]
  viability, T/C: 25.5%
[7]
  viability, T/C: 26.4%
[8]
  viability, T/C: 27.6%
[9]
  viability, T/C: 12.1%
[10]
  viability, T/C: 4.13%
Second compound 0.316 µM, first compound 0.0001 µM
  viability, T/C: 24.9%
[12]
  viability, T/C: 24.7%
[13]
  viability, T/C: 28.9%
[14]
  viability, T/C: 14.2%
[15]
  viability, T/C: 8.8%
[16]
  viability, T/C: 2.68%
Second compound 1 µM, first compound 0.0001 µM
  viability, T/C: 30.5%
[18]
  viability, T/C: 28.2%
[19]
  viability, T/C: 22.8%
[20]
  viability, T/C: 17.7%
[21]
  viability, T/C: 8.78%
[22]
  viability, T/C: 3.83%
Second compound 3.16 µM, first compound 0.0001 µM
  viability, T/C: 26.7%
[24]
  viability, T/C: 27.7%
[25]
  viability, T/C: 20.1%
[26]
  viability, T/C: 10.5%
[27]
  viability, T/C: 10.7%
[28]
  viability, T/C: 3.27%
Second compound 10 µM, first compound 0.0001 µM
  viability, T/C: 20.3%
[30]
  viability, T/C: 18.9%
[31]
  viability, T/C: 16.9%
[32]
  viability, T/C: 11.7%
[33]
  viability, T/C: 6.78%
[34]
  viability, T/C: 4.36%

## CCN1CCN(Cc2ccc(Nc3ncc(F)c(-c4cc(F)c5nc(C)n(C(C)C)c5c4)n3)nc2)CC1 + C=CC(=O)N1CCN(c2nc(OCC3CCCN3C)nc3c2CCN(c2cccc4cccc(C)c24)C3)CC1CC#N
Curve of first compound, second compound 0.0316 µM
  IC50: < 3.16 nM
[1]
  IC50: < 3.16 nM
[2]
  IC50: < 3.16 nM
[3]
  IC50: < 3.16 nM
[4]
  IC50: < 3.16 nM
Second compound 0.0316 µM, first compound 0.00316 µM
  viability, T/C: 36.1%
Second compound 0.0316 µM, first compound 0.01 µM
  viability, T/C: 32.4%
Second compound 0.0316 µM, first compound 0.0316 µM
  viability, T/C: 22.2%
Second compound 0.0316 µM, first compound 0.1 µM
  viability, T/C: 26.6%
Second compound 0.0316 µM, first compound 0.316 µM
  viability, T/C: 27.6%
Second compound 0.0316 µM, first compound 1 µM
  viability, T/C: 31.4%
[8]
  viability, T/C: 32.8%
[9]
  viability, T/C: 24.7%
[10]
  viability, T/C: 18.6%
[11]
  viability, T/C: 20%
Second compound 0.1 µM, first compound 0.316 µM
  viability, T/C: 22.1%
Second compound 0.1 µM, first compound 1 µM
  viability, T/C: 25.3%
[14]
  viability, T/C: 23.9%
[15]
  viability, T/C: 25.3%
[16]
  viability, T/C: 16.7%
[17]
  viability, T/C: 22.5%
Second compound 0.316 µM, first compound 0.316 µM
  viability, T/C: 23.7%
Second compound 0.316 µM, first compound 1 µM
  viability, T/C: 27.7%
[20]
  viability, T/C: 27.7%
[21]
  viability, T/C: 20.6%
[22]
  viability, T/C: 22.1%
[23]
  viability, T/C: 21.8%
Second compound 1 µM, first compound 0.316 µM
  viability, T/C: 26%
Second compound 1 µM, first compound 1 µM
  viability, T/C: 33.5%
[26]
  viability, T/C: 28%
[27]
  viability, T/C: 30.7%
[28]
  viability, T/C: 25.6%
[29]
  viability, T/C: 29%
Second compound 3.16 µM, first compound 0.316 µM
  viability, T/C: 31.4%
Second compound 3.16 µM, first compound 1 µM
  viability, T/C: 29.4%

## CC(C)n1nc(-c2ccc3oc(N)nc3c2)c2c(N)ncnc21
Compound 0.000316 µM
  viability, T/C: 98.5% [middle of 5 runs]
Compound 0.001 µM
  viability, T/C: 89.3% [middle of 5 runs]

## CC1(C)CCC(CN2CCN(c3ccc(C(=O)NS(=O)(=O)c4ccc(NCC5CCOCC5)c([N+](=O)[O-])c4)c(Oc4cnc5[nH]ccc5c4)c3)CC2)=C(c2ccc(Cl)cc2)C1
Compound 0.0316 µM
  viability, T/C: 98.2% [middle of 5 runs]
Compound 0.1 µM
  viability, T/C: 94.7% [middle of 5 runs]
Compound 0.316 µM
  viability, T/C: 87% [middle of 5 runs]
Compound 1 µM
  viability, T/C: 89.9% [middle of 5 runs]
Compound 3.16 µM
  viability, T/C: 45.9% [middle of 5 runs]
Compound 10 µM
  viability, T/C: 12.4% [middle of 5 runs]
Curve of compound
  IC50: 2.84 µM [middle of 5 runs]

## CN(C)C/C=C/C(=O)Nc1cc2c(Nc3ccc(F)c(Cl)c3)ncnc2cc1O[C@H]1CCOC1
Compound 0.000316 µM
  viability, T/C: 100% [middle of 5 runs]
Compound 0.001 µM
  viability, T/C: 90.1% [middle of 5 runs]
Compound 0.01 µM
  viability, T/C: 72.6% [middle of 5 runs]
Compound 0.0316 µM
  viability, T/C: 60.4% [middle of 5 runs]
Compound 0.1 µM
  viability, T/C: 60.7% [middle of 5 runs]
Curve of compound
  IC50: > 100 nM
